The subject of experiment [1] is human colon cancer LoVo cells. Put plainly: Cell proliferation inhibition assay (CellTiter-Glo). It counts as cell-based. Particulars: for IC50 / Emax / Max Inhibition: LoVo cells, 96 hours incubation; for Emax: Homo sapiens, read-out: Max Inhibition; for LoVo IC50 value (ratio to Example Compound 1): LoVo IC50 of comparative compound divided by that of Example Compound 1 (0.66 μM). An excerpt:
Experimental method: A CellTiter-Glo cell viability assay kit was used to test the inhibitory effect of the compounds on the in vitro proliferation of human colon cancer LoVo cells.
Experimental materials: LoVo cells (ATCC, Cat. No. CCL-29); F-12K medium (Invitrogen, Cat. No. 21127-022); fetal bovine serum (Biological Industries, Cat. No. 04-002-1A); GlutaMAX (Gibco, Cat. No. 35050-061); 0.25% trypsin-EDTA (Invitrogen, Cat. No. 25200-072); CellTiter-Glo kit (Promega, Cat. No. G7558).
Experimental procedure: (1) F-12K medium, fetal bovine serum and GlutaMAX were formulated into a complete medium for culturing LoVo cells; (2) well-grown LoVo cells were taken, digested with trypsin and transferred to a centrifuge tube, and centrifuged; the supernatant was discarded, and cells were resuspended by adding a fresh medium and counted by a Vi-CELL XR cell counter; the density of the cell suspension was adjusted to 25,000 to 30,000 cells/mL, and the cell suspension was added at 100 μL/well in a 96-well cell culture plate, while a blank control group was set up with no cells added, and the cell culture plate was incubated in a carbon dioxide incubator overnight; (3) a DMSO solution of the compound to be tested was dispensed into the above 96-well cell culture plate using an HP D300 ultra-micro sampler, with 0.5 μL of the solution per well and 10 concentrations for each compound (3× dilution), while a DMSO control group with no compound added was set up, and the plate was continued to be incubated in a carbon dioxide incubator for 96 hours; (4) the cell culture plate was taken out and equilibrated to room temperature, with 100 μL of a CellTiter-Glo reagent added to each well, and then the plate was kept away from light, shaken for 10 minutes and then incubated for 10 minutes; (5) the cell culture plate was put into EnSpire for plate reading, and the luminescence value RLU was recorded.
Data processing: (1) The inhibition rate was calculated from the luminescence values: “RLUDMSO” is the luminescence value of the DMSO control group without compound, “RLUblank” is the luminescence value of the blank control group without cells, and “RLUcompound” is the luminescence value of the compound test group, and the inhibition rate=[1−(RLUcompound−RLUblank)/(RLUDMSO−RLUblank)]×100%; (2) with curve fitting using the Excel add-on XLFit, the IC50 value was calculated.

In a further experiment the target is ATR kinase (Homo sapiens (Human), UniProt Q13535). Put plainly: In vitro ATR kinase inhibition assay (Mobility Shift Assay, Caliper EZ Reader). In kind it is biochemical. Particulars: for IC50: ATP concentration of Km, 4 h at 28° C.; for ATR IC50 value (ratio to Example Compound 1): ATR IC50 of comparative compound divided by that of Example Compound 1 (5.5 nM). The method, then: Experimental method: The inhibitory activity of the compounds on ATR kinase in vitro was determined by Mobility Shift Assay at an ATP concentration of Km using Caliper EZ Reader as a mobility shift assaying technology based on microfluidic chip technology.
Experimental procedure: (1) The compounds to be tested were dissolved in DMSO and serially diluted 4× for a total of 10 concentrations; (2) 0.06 μL of the compounds at different concentrations were pipetted into a 384-well plate using an Echo pipetting system; (3) a 2× kinase solution with a concentration of 10 nM ATR kinase was prepared from the ATR kinase and the 1× kinase buffer; and a 2× substrate solution with a concentration of 6 μM 5-FAM-AK-17 and 4 μM ATP was prepared from 5-FAM-AK-17, ATP and the 1× kinase buffer; (4) 10 μL of the 2× kinase solution was added into the 384-well plate and incubated for 10 min at room temperature; 10 μL of the 2× substrate solution was then added and incubated for 4 h at 28° C.; (5) 30 μL of the termination buffer was added to terminate the reaction, and then the 384-well plate was put into the Caliper EZ Reader to read the conversion rate data.

SMILES strings stand for the structures.

Sequence of ATR kinase (Q13535 whole entry): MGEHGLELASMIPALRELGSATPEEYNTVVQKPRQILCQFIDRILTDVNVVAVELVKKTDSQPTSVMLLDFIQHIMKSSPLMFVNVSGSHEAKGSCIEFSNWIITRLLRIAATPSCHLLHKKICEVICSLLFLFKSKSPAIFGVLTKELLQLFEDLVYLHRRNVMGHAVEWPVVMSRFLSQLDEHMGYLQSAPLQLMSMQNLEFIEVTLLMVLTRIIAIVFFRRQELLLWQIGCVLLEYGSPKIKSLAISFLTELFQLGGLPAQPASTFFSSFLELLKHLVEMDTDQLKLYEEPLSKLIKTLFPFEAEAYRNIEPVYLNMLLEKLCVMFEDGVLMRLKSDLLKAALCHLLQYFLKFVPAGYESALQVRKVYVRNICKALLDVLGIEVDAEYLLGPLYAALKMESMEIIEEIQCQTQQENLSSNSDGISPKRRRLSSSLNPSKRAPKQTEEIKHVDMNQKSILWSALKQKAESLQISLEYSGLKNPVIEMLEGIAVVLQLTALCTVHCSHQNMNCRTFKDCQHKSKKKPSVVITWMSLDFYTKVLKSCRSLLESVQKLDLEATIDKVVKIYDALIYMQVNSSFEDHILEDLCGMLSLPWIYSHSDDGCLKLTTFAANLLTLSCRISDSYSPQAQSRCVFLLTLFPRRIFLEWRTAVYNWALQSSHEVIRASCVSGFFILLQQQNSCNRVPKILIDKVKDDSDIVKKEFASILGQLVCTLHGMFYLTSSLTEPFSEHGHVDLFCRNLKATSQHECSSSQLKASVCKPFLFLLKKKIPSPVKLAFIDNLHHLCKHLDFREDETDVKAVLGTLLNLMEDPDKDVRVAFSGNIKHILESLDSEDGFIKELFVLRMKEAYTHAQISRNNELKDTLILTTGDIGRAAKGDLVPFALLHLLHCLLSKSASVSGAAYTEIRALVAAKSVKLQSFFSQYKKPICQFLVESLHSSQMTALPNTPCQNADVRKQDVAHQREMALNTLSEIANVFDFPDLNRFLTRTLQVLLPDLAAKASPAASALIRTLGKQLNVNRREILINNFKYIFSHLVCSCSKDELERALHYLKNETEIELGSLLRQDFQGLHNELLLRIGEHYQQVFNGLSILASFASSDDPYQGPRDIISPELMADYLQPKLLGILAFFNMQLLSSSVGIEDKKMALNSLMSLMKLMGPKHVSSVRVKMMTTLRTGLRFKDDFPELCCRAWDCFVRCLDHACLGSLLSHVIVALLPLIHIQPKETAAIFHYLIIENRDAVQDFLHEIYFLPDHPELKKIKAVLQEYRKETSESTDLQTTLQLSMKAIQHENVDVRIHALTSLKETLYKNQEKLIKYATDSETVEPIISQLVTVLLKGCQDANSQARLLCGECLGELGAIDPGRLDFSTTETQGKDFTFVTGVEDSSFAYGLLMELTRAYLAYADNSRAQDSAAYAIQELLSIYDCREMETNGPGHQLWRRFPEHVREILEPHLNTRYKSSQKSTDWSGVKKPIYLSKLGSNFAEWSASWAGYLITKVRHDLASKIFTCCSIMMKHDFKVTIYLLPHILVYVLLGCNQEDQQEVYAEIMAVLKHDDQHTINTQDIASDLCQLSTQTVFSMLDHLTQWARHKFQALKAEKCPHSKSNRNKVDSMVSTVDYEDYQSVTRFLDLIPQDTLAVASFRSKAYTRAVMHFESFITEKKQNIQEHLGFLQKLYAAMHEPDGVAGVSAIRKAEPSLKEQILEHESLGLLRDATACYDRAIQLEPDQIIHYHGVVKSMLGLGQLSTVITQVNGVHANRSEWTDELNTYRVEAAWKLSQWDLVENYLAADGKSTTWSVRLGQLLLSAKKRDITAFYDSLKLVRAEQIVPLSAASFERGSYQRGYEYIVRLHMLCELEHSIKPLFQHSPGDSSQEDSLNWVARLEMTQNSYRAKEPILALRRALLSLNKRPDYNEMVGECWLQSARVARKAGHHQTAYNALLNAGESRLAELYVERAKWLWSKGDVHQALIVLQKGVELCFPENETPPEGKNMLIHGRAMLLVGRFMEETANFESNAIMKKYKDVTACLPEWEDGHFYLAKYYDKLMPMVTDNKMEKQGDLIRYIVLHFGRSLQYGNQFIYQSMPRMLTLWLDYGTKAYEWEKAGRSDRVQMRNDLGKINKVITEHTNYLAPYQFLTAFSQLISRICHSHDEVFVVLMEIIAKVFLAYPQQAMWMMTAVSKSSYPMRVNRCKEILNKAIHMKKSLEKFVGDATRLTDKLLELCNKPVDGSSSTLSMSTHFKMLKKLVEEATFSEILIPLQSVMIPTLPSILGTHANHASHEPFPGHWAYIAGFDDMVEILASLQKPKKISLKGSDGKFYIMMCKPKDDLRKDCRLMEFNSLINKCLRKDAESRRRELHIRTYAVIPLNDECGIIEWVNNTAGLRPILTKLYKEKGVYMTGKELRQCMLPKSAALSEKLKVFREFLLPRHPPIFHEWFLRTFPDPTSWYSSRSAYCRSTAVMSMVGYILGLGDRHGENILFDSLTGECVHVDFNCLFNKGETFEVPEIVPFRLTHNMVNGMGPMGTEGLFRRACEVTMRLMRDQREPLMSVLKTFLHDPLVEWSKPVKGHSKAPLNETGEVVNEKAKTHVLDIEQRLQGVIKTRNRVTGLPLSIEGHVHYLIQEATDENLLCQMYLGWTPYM
Sequence of ATR kinase (Q8WXE1 whole entry partner): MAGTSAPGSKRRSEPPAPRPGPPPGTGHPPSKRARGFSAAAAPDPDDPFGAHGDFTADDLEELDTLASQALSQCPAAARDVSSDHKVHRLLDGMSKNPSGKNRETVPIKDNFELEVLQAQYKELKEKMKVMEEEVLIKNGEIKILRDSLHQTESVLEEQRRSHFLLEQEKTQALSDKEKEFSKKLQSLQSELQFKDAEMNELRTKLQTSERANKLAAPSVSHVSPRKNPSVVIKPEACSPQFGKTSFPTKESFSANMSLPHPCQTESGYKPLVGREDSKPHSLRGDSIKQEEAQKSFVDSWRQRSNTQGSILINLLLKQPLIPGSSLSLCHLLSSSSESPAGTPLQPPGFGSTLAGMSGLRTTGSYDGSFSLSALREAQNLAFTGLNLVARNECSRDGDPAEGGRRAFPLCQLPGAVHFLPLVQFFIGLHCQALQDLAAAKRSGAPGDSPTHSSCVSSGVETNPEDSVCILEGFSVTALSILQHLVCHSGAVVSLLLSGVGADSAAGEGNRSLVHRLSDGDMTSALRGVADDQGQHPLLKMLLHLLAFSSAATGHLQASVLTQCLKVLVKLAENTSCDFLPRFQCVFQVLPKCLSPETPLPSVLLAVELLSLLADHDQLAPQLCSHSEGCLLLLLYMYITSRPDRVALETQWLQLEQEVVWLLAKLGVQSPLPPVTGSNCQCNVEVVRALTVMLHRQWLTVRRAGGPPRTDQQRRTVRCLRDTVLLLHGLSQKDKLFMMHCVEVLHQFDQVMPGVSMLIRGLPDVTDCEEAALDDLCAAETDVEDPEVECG

Broadly, the IC50 is the concentration at which inhibition is half-maximal. Turning to `C[C@@H]1COCCN1c1cc(-c2ccnc3[nH]ccc23)nc2c1ccn2S(C)(=O)=O` [Compound 1, (R)-3-methyl-4-(1′-(methylsulfonyl)-1H,1′H-[4,6′-dipyrrolo[2,3-b]pyridin]-4′-yl)morpholine], the figures for the IC50 (in experiment [1]; at ATR kinase) were 660 nM and 5.5 nM, respectively.
Consider `C[C@@H]1COCCN1c1cc(-c2cccc3[nH]ccc23)nc2c1ccn2S(C)(=O)=O` [Compound 2, (R)-4-(6-(1H-indol-4-yl)-1-(methylsulfonyl)-1H-pyrrolo[2,3-b]pyridin-4-yl)-3-methylmorpholine], for which, in experiment [1], the Emax was determined as 94%. Further, on ATR kinase, the IC50 was 4.2 nM.
`C[C@@H]1COCCN1c1cc(-c2ccnc3[nH]ccc23)nc2c1ccn2C` [Compound 2′, reference compound]: the IC50 at ATR kinase turned out to be 63 nM.
Regarding `C[C@@H]1COCCN1c1cc(-c2cncc3[nH]ccc23)nc2c1ccn2S(C)(=O)=O` [Compound 3, (R)-3-methyl-4-(1-(methylsulfonyl)-6-(1H-pyrrolo[2,3-c]pyridin-4-yl)-1H-pyrrolo[2,3-b]pyridin-4-yl)morpholine], in experiment [1], the Emax was 93%. On ATR kinase, the IC50 stood at 10 nM.
Regarding `C[C@@H]1COCCN1c1nc(-c2cncc3[nH]ccc23)nc2c1ccn2C` [Compound 3′, reference compound], the IC50 at ATR kinase was 31 nM.
Regarding `C[C@@H]1COCCN1c1cc(-c2cnc3[nH]ccc3c2)nc2c1ccn2S(C)(=O)=O` [Compound 4, (R)-3-methyl-4-(1′-(methylsulfonyl)-1H,1′H-[5,6′-dipyrrolo[2,3-b]pyridin]-4′-yl)morpholine], the half-maximal inhibitory concentration (IC50) on ATR kinase worked out at 208 nM.
On to `C[C@@H]1COCCN1c1cc(-c2ccnc3[nH]ccc23)nc2c1ccn2CS(C)(=O)=O` [Compound 4′, reference compound], for which the “LoVo IC50 value (ratio to Example Compound 1)” value in experiment [1] is on record as 2.34/0.66 = 3.55. At ATR kinase, the IC50 turned out to be 20 nM and the “ATR IC50 value (ratio to Example Compound 1)” value is 20/5.5 = 3.64.
As to `C[C@@H]1COCCN1c1cc(-c2c[nH]c3ncccc23)nc2c1ccn2S(C)(=O)=O` [Compound 5, (R)-3-methyl-4-(1′-(methylsulfonyl)-1H,1′H-[3,6′-dipyrrolo[2,3-b]pyridin]-4′-yl)morpholine], the IC50 at ATR kinase came out at 534 nM.
As for `CC(n1ccc2c(N3CCOC[C@H]3C)cc(-c3ccnc4[nH]ccc34)nc21)S(C)(=O)=O` (stereo partly drawn) [Compound 5′, reference compound], the “LoVo IC50 value (ratio to Example Compound 1)” value in experiment [1] is 1.88/0.66 = 2.85. For the same molecule, at ATR kinase, the IC50 was 15 nM and the “ATR IC50 value (ratio to Example Compound 1)” value is reported as 15/5.5 = 2.73.
For `Cc1c[nH]c2nccc(-c3cc(N4CCOC[C@H]4C)c4ccn(S(C)(=O)=O)c4n3)c12` [Compound 6, (R)-3-methyl-4-(3-methyl-1′-(methylsulfonyl)-1H,1′H-[4,6′-dipyrrolo[2,3-b]pyridin]-4′-yl)morpholine], at ATR kinase, the IC50 is 188 nM.
Same read-out and setting: then `C[C@@H]1COCCN1c1cc(-c2ccnc3[nH]ccc23)c2ccn(S(C)(=O)=O)c2n1` [Compound 6′, reference compound], with 268 nM.
Consider `C[C@@H]1COCCN1c1cc(-c2cc(F)cc3[nH]ccc23)nc2c1ccn2S(C)(=O)=O` [Compound 7, (R)-4-(6-(6-fluoro-1H-indol-4-yl)-1-(methylsulfonyl)-1H-pyrrolo[2,3-b]pyridin-4-yl)-3-methylmorpholine], for which the Emax in experiment [1] was found to be 95%. In addition, at ATR kinase, the IC50 is 3.2 nM.
Take `CC(n1cnc2c(N3CCOC[C@H]3C)nc(-c3cncc4[nH]ccc34)cc21)S(C)(=O)=O` (stereo partly drawn) [Compound 7′, reference compound]: the concentration for half-maximal inhibition (IC50) at ATR kinase worked out at 28 nM.
For `C[C@@H]1COCCN1c1cc(-c2ccc(F)c3[nH]ccc23)nc2c1ccn2S(C)(=O)=O` [Compound 8, (R)-4-(6-(7-fluoro-1H-indol-4-yl)-1-(methylsulfonyl)-1H-pyrrolo[2,3-b]pyridin-4-yl)-3-methylmorpholine], at ATR kinase, the IC50 was 78 nM.
The same measure, in the same setting: the result for `C[C@@H]1COCCN1c1cc(-c2ccn[nH]2)nc2c1ccn2S(C)(=O)=O` [Compound 9, (R)-3-methyl-4-(1-(methylsulfonyl)-6-(1H-pyrazol-5-yl)-1H-pyrrolo[2,3-b]pyridin-4-yl)morpholine] reads 311 nM; that for `C[C@@H]1COCCN1c1cc(-c2cn[nH]c2)nc2c1ccn2S(C)(=O)=O` [Compound 10, (R)-3-methyl-4-(1-(methylsulfonyl)-6-(1H-pyrazol-4-yl)-1H-pyrrolo[2,3-b]pyridin-4-yl)morpholine], 843 nM.
On the same count and under the same terms, then `C[C@@H]1COCCN1c1cc(-c2nc3ccccc3[nH]2)nc2c1ccn2S(C)(=O)=O` [Compound 11, (R)-4-(6-(1H-benzo[d]imidazol-2-yl)-1-(methylsulfonyl)-1H-pyrrolo[2,3-b]pyridin-4-yl)-3-methylmorpholine], with 823 nM.
The same measure, in the same setting: then `C[C@@H]1COCCN1c1cc(-c2ncnc3[nH]ccc23)nc2c1ccn2S(C)(=O)=O` [Compound 12, (R)-3-methyl-4-(1-(methylsulfonyl)-6-(7H-pyrrolo[2,3-d]pyrimidin-4-yl)-1H-pyrrolo[2,3-b]pyridin-4-yl)-morpholine], with 130 nM; and `C[C@@H]1COCCN1c1cc(-c2ccnc3[nH]cnc23)nc2c1ccn2S(C)(=O)=O` [Compound 13, (R)-4-(6-(3H-imidazo[4,5-b]pyridin-7-yl)-1-(methylsulfonyl)-1H-pyrrolo[2,3-b]pyridin-4-yl)-3-methylmorpholine], with 196 nM.
As for `CC(C)S(=O)(=O)n1ccc2c(N3CCOC[C@H]3C)cc(-c3ccnc4[nH]ccc34)nc21` [Compound 14, (R)-4-(1′-(isopropylsulfonyl)-1H,1′H-[4,6′-dipyrrolo[2,3-b]pyridin]-4′-yl)-3-methylmorpholine], in experiment [1], 2130 nM corresponded to half-maximal inhibition (IC50) and the “Max Inhibition” value is recorded as 93%. Also, the IC50 at ATR kinase worked out at 35 nM.
In the same order, the values of `C[C@@H]1COCCN1c1cc(-c2ccnc3[nH]ccc23)nc2c1ccn2S(=O)(=O)C1CC1` [Compound 15, (R)-4-(1′-(cyclopropylsulfonyl)-1H,1′H-[4,6′-dipyrrolo[2,3-b]pyridin]-4′-yl)-3-methylmorpholine] are 1270 nM, 94% and 12 nM.
In the same order, the values of `C[C@@H]1COCCN1c1cc(-c2ccnc3[nH]ccc23)nc2c1ccn2S(=O)(=O)N(C)C` [Compound 16, (R)-N,N-dimethyl-4′-(3-methylmorpholinyl)-1H,1′H-[4,6′-dipyrrolo[2,3-b]pyridine]-1′-sulfamide] are 1820 nM, 93% and 17 nM.
Regarding `C[C@@H]1COCCN1c1nc(-c2ccnc3[nH]ccc23)nc2c1ccn2S(C)(=O)=O` [Compound 17, (R)-3-methyl-4-(7-(methylsulfonyl)-2-(1H-pyrrolo[2,3-b]pyridin-4-yl)-7H-pyrrolo[2,3-d]pyrimidin-4-yl)morpholine], the Emax in experiment [1] was 93%. Moreover, the IC50 on ATR kinase is 1.6 nM.
For `C[C@@H]1COCCN1c1nc(-c2cccc3[nH]ccc23)nc2c1ccn2S(C)(=O)=O` [Compound 18, (R)-4-(2-(1H-indol-4-yl)-7-(methylsulfonyl)-7H-pyrrolo[2,3-d]pyrimidin-4-yl)-3-methylmorpholine], in that order: 92% and 2.3 nM.
In the same order, the values of `C[C@@H]1COCCN1c1nc(-c2cncc3[nH]ccc23)nc2c1ccn2S(C)(=O)=O` [Compound 19, (R)-3-methyl-4-(7-(methylsulfonyl)-2-(1H-pyrrolo[2,3-c]pyridin-4-yl)-7H-pyrrolo[2,3-d]pyrimidin-4-yl)morpholine] are 90% and 1.6 nM.
